{
  "source": "ChEMBL document CHEMBL5465560",
  "about": "“Selectivity Literature for EUbOPEN Chemogenomic Library” (2024)",
  "key": {"[1]": {"target": "T1, Serine/threonine-protein kinase Nek9 (Homo sapiens) (UniProt Q8TD19)", "T1 sequence (whole entry)": "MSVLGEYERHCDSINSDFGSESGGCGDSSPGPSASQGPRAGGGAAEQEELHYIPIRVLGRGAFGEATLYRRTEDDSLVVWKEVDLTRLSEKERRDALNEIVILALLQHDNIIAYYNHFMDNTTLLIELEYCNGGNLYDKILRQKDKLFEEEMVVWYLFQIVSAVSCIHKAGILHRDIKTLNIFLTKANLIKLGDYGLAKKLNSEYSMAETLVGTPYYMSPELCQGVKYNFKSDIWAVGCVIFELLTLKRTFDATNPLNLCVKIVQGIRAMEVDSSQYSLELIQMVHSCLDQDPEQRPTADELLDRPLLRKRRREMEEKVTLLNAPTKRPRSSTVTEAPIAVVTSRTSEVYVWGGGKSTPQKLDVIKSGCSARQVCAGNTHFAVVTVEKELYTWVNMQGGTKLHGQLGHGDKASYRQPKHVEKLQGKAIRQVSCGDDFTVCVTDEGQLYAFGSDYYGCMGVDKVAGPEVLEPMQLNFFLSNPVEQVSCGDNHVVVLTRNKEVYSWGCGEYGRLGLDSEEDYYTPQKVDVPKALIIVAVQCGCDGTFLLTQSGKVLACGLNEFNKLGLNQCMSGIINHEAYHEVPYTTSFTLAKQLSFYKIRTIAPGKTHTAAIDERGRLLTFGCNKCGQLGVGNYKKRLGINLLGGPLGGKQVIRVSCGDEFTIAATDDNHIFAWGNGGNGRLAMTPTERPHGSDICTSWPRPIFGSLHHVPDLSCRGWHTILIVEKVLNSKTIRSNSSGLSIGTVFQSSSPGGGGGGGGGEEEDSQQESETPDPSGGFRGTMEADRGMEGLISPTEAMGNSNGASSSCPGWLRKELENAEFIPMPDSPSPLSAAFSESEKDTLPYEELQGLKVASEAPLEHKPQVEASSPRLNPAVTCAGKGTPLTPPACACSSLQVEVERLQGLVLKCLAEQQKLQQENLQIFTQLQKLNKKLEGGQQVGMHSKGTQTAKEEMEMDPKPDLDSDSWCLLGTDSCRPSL", "assay": "Selectivity interaction (ActivX KiNativ screen (kinase selectivity in THP-1 cell lysates)) EUB0000639a NEK9", "type": "subcellular", "details": "lysate, at 0.2 µM"}, "[2]": {"target": "T2, Phosphorylase b kinase gamma catalytic chain, liver/testis isoform (Homo sapiens) (UniProt P15735)", "T2 sequence (whole entry)": "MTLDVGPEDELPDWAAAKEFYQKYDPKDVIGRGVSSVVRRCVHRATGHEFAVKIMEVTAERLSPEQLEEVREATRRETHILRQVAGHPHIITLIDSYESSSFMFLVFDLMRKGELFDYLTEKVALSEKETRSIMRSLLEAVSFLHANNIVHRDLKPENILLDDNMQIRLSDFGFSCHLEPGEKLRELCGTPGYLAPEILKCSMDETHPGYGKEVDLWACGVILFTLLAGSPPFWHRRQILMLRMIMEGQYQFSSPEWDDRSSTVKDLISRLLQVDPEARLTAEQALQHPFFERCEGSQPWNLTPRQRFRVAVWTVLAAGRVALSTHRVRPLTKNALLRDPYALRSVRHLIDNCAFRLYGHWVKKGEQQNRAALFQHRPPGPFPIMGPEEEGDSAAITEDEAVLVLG", "assay": "Selectivity interaction (KinomeScan (DiscoverX)) EUB0000045b PHKG2"}, "[3]": {"target": "T3, Beta-adrenergic receptor kinase 1 (Homo sapiens) (UniProt P25098)", "T3 sequence (whole entry)": "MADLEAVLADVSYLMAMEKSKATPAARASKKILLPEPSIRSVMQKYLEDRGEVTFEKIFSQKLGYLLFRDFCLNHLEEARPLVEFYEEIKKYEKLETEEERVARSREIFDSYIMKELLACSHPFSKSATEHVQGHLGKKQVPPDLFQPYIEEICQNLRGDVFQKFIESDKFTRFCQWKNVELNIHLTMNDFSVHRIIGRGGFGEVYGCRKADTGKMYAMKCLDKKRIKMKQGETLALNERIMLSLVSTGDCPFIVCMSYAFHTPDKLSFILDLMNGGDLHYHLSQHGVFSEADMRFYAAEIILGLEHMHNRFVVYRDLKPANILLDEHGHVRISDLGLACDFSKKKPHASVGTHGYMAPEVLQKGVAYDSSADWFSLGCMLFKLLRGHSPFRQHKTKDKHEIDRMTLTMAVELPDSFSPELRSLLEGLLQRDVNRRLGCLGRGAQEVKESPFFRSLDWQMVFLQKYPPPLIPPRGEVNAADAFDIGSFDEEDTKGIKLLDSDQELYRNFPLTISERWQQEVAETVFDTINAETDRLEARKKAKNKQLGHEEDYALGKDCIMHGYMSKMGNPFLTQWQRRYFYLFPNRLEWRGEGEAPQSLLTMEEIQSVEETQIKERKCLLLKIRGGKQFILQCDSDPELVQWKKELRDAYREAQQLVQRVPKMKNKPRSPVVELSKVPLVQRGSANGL", "assay": "Selectivity interaction (ActivX KiNativ screen (ex vivo kinase selectivity in human PBMCs)) EUB0001619a ADRBK1", "type": "cell-based", "details": "PBMC, at 1 µM"}, "[4]": {"target": "Serine/threonine-protein kinase NIM1 (Homo sapiens, UniProt Q8IY84)", "sequence (Q8IY84 whole entry)": "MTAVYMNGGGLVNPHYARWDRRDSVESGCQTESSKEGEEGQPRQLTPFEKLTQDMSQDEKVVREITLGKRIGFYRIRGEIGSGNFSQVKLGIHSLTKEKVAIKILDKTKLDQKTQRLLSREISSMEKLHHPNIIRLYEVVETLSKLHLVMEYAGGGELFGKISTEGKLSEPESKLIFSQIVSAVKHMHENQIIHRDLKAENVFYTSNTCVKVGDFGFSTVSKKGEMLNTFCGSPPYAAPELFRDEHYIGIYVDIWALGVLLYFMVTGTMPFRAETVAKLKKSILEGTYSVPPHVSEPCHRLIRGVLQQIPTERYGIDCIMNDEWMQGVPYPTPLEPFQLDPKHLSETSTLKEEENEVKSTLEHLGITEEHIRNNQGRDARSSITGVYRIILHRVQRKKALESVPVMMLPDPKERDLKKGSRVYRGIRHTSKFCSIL", "assay": "Selectivity interaction (KinomeScan (DiscoverX)) EUB0001619a NIM1K", "details": "at 1 µM"}, "[5]": {"target": "T4, Serine/threonine-protein kinase MAK (Homo sapiens) (UniProt P20794)", "T4 sequence (whole entry)": "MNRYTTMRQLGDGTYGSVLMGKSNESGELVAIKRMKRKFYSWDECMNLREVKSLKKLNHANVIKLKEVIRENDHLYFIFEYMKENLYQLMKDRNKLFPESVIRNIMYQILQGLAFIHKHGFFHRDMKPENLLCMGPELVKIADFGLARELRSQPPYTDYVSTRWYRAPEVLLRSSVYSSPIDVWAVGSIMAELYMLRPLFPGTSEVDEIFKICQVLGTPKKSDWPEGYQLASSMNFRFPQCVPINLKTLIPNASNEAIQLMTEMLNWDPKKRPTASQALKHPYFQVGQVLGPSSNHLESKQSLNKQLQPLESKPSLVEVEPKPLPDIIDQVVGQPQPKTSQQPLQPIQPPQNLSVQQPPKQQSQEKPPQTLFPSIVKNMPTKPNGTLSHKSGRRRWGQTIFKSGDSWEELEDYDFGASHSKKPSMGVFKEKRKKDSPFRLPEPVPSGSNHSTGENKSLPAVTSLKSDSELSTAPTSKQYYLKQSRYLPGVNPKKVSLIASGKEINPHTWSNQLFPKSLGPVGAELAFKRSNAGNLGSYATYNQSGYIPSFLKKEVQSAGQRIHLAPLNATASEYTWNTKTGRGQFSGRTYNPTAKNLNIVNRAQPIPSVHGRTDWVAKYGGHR", "assay": "Selectivity interaction (KinomeScan (DiscoverX)) EUB0001619a MAK", "details": "at 1 µM"}},
  "data": [
    {"smiles": "CC[C@@H]1[C@H](F)C(=O)N[C@@H]1COc1nccc2cc(C(N)=O)c(OC)cc12", "note": "[ZIMLOVISERTIB]", "values": [
      {"measurement": "% of inhibition", "setting": "[1]", "value": 8.3, "unit": "%"}
    ]},
    {"smiles": "C=CC(=O)Nc1cc(-n2c(=O)ccc3cnc4ccc(-c5ccc(NS(C)(=O)=O)cc5)cc4c32)ccc1C", "values": [
      {"measurement": "% of control", "setting": "[2]; at 1 µM", "value": 74, "unit": "%"},
      {"measurement": "% of control", "setting": "[2]; at 10 µM", "value": 88, "unit": "%"}
    ]},
    {"smiles": "N#Cc1cccc(-c2c[nH]c3ncnc(N4CCOCC4)c23)c1", "values": [
      {"measurement": "% of inhibition", "setting": "[3]", "value": -5, "unit": "%"},
      {"measurement": "% of control", "setting": "[4]", "value": 80, "unit": "%"},
      {"measurement": "% of control", "setting": "[5]", "value": 94, "unit": "%"}
    ]}
  ]
}
